Source: patent US20080145431A1, “Medicinal Composition and Process for Producing the Same” (priority 2005, published 2008)
Where two headings read alike, the source gives them in different places.

Experiments:
[1] = Saturation solubility in water; type: physicochemical
[2] = cited from earlier work

Structure (SMILES)	Solubility in water under substantially physiological conditions ([1]; pH 5 to 7)	solubility ([1]; water, process liquid temperature of 17° C.)	Saturation solubility in water ([2]; 22° C.)	Saturation solubility in water ([2]; 37° C.)
NS(=O)(=O)c1ccc(S(=O)(=O)Nc2cccc3c(Cl)c[nH]c23)cc1 [Drug A, N-(3-chloro-7-indolyl)-1,4-benzenedisulfonamide]	practically insoluble	≤ 100 µg/mL	–	–
COc1ccc(Cl)cc1C(=O)NCCc1ccc(S(=O)(=O)NC(=O)NC2CCCCC2)cc1 [Glibenclamide]	–	–	5.9 µg/mL	9.9 µg/mL
